Counter-ions that a name gives are not always drawn.
Molecular target: muscarinic acetylcholine receptors
Experiment: Inhibition of specific binding of 3H-Oxotremorine-M (OXO BINDING) in vitro, rat cortex
Parameters: species or system male Wistar rats
Settings: rat cortex homogenate, 3H-Oxotremorine 1.0 nM, 30 min at 25° C., pH 7.4
Text: The pharmacological properties of the compounds of the invention can be illustrated by determining their capability to inhibit the specific binding of ^3 H-Oxotremorine-M (^3 H-Oxo). Birdsdall N. J. M., Hulme E. C., and Burgen A. S. V. (1980). "The Character of Muscarinic Receptors in Different Regions of the Rat Brain". Proc. Roy. Soc. London (Series B) 207,1.
^3 H-Oxo labels muscarinic receptor in the CNS (with a preference for agonist domains of the receptors). Three different sites are labelled by ^3 H-Oxo. […] Using the present experimental conditions only the high and medium affinity sites are determined.
The inhibitory effects of compounds on ^3 H-Oxo binding reflects the affinity for muscarinic acetylcholine receptors.
All preparations are performed at 0°-4° C. unless otherwise indicated. Fresh cortex (0.1-1 g) from male Wistar rats (150-250 g) is homogenized for 5-10 s in 10 ml 20 mM Hepes pH: 7.4, with an Ultra-Turrax homogenizer. The homogenizer, is rinsed with 10 ml of buffer and the combined suspension centrifuged for 15 min at 40,000×g. The pellet is washed three times with buffer. In each step the pellet is homogenized as before in 2×10 ml of buffer and centrifuged for 10 min at 40,000×g.
The final pellet is homogenized in 20 mM Hepes pH: 7.4 (100 ml per g of original tissue) and used for binding assay. Aliquots of 0.5 ml is added 25 μl of test solution and 25 μl of ^3 H-Oxotremorine (1.0 nM, final concentration) mixed and incubated for 30 min at 25° C. Non-specific binding is determined in triplicate using arecoline (1 μg/ml, final concentration) as the test substance. After incubation samples are added 5 ml of ice-cold buffer and poured directly onto Whatman GF/C glass fibre filters under suction and immediately washed 2 times with 5 ml of ice-cold buffer. The amount of radioactivity on the filters are determined by conventional liquid scintillation counting. Specific binding is total binding minus non specific binding.
Test substances are dissolved in 10 ml water (if necessary heated on a steam bath for less than 5 minutes) at a concentration of 2.2 mg/ml.
The test value will be given as IC50 (the concentration (ng/ml) of the test substance which inhibits the specific binding of ^3 H-Oxo by 50%).
IC50 =(applied test substance concentration) [formula] where Co is specific binding in control assays and Cx is the specific binding in the test assay. (The calculations assume normal mass-action kinetics).

CCCCCCSc1nsnc1[C@H]1CN2CCC[C@@H]1C2 (relative stereo) [Compound 17, Endo-6-(3-hexylthio-1,2,5-thiadiazol-4-yl)-1-azabicyclo[3.2.1]octane oxalate]
Inhibition in vitro OXO BINDING IC50: 3.2 ng/mL

FC(F)(F)C(F)(F)C(F)(F)COc1nsnc1[C@@H]1CN2CCC[C@@H]1C2 (relative stereo) [Compound 116, Exo-6-(3-(2,2,3,3,4,4,4-heptafluorobutyloxy)-1,2,5-thiadiazol-4-yl)-1-azabicyclo[3.2.1]octane oxalate]
Inhibition in vitro OXO BINDING IC50: 1.4 ng/mL

CCCCSc1nsnc1[C@H]1CN2CCC[C@H]1C2 (relative stereo) [Compound 30, Exo-6-(3-butylthio-1,2,5-thiadiazol-4-yl)-1-azabicyclo[3.2.1]octane oxalate]
Inhibition in vitro OXO BINDING IC50: 0.13 ng/mL

CCCCCCOc1nsnc1C1(OCCCCCC)CN2CCC1CC2.O=C(O)C(=O)O (centres unmarked) [Compound 6, 3-Hexyloxy-3-(3-hexyloxy-1,2,5-thiadiazol-4-yl)-1-azabicyclo[2.2.2]octane oxalate]
Inhibition in vitro OXO BINDING IC50: > 300 ng/mL

CCOc1nsnc1C1=C(Cl)CC2CCC1N2.O=C(O)C(=O)O (centres unmarked) [Compound 43, 3-Chloro-2-(3-ethoxy-1,2,5-thiadiazol-4-yl)-8-azabicyclo[3.2.1]oct-2-ene oxalate]
Inhibition in vitro OXO BINDING IC50: 2.33 ng/mL

CCCCCCCSc1nsnc1[C@H]1CN2CCC[C@H]1C2 (relative stereo) [Compound 75, Exo-6-(3-heptylthio-1,2,5-thiadiazol-4-yl)-1-azabicyclo[3.2.1]octane oxalate]
Inhibition in vitro OXO BINDING IC50: 0.96 ng/mL

c1ccc(CCCSc2nsnc2[C@H]2CN3CC[C@H]2C3)cc1 (relative stereo) [Compound 41, Exo-3-(3-(3-phenylpropylthio)-1,2,5-thiadiazol-4-yl)-1-azabicyclo[2.2.1]heptane oxalate]
Inhibition in vitro OXO BINDING IC50: 0.56 ng/mL

CCCCSc1nsnc1[C@@H]1CN2CC[C@H]1C2 (relative stereo) [Compound 36, Endo-3-(3-butylthio-1,2,5-thiadiazol-4-yl)-1-azabicyclo[2.2.1]heptane fumarate]
Inhibition in vitro OXO BINDING IC50: 0.82 ng/mL

CCCSc1nsnc1[C@@H]1CN2CC[C@H]1C2 (relative stereo) [Compound 37, Endo:3-(3-propylthio-1,2,5-thiadiazol-4-yl)-1-azabicyclo[2.2.1]heptane oxalate]
Inhibition in vitro OXO BINDING IC50: 2.0 ng/mL

CCCCSc1nsnc1C1CN2CCC1CC2.O=C(O)C(O)C(O)C(=O)O (single isomer, unassigned) [Compound 55, (-) 3-(3-Butylthio-1,2,5-thiadiazol-4-yl)-1-azabicyclo[2.2.2]octane (+) L-tartrate]
Inhibition in vitro OXO BINDING IC50 (L-tartrate): 0.43 ng/mL

CC(C)CCCSc1nsnc1[C@H]1CN2CCC[C@@H]1C2 (relative stereo) [Compound 87, Endo-6-(3-isohexylthio-1,2,5-thiadiazol-4-yl)-1-azabicyclo[3.2.1]octane oxalate]
Inhibition in vitro OXO BINDING IC50: 10 ng/mL

N#CCCCCSc1nsnc1[C@H]1CN2CCC[C@@H]1C2 (relative stereo) [Compound 92, Endo-6-(3-(4-cyanobutylthio)-1,2,5-thiadiazol-4-yl)-1-azabicyclo[3.2.1]octane oxalate]
Inhibition in vitro OXO BINDING IC50: 1.5 ng/mL

CCCCCSc1nsnc1C1CN2CCC1CC2.O=C(O)/C=C/C(=O)O (centres unmarked) [Compound 12, 3-(3-Pentylthio-1,2,5-thiadiazol-4-yl)-1-azabicyclo[2.2.2]octane fumarate]
Inhibition in vitro OXO BINDING IC50: 0.45 ng/mL

CCCCCCCSc1nsnc1C1CN2CCC1CC2.O=C(O)/C=C/C(=O)O (centres unmarked) [Compound 54, 3-(3-Heptylthio-1,2,5-thiadiazol-4-yl)-1-azabicyclo[2.2.2]octane fumarate]
Inhibition in vitro OXO BINDING IC50: 3.1 ng/mL

CCOc1nsnc1C1CN2CCC1CC2.O=C(O)/C=C/C(=O)O (centres unmarked) [Compound 9, 3-(3-Ethoxy-1,2,5-thiadiazol-4-yl)-1-azabicyclo[2.2.2]octane fumarate]
Inhibition in vitro OXO BINDING IC50: 0.69 ng/mL

CCCCSc1nsnc1[C@@H]1CN2CCC[C@@H]1C2 (single isomer, unassigned) [Compound 111, (+)-Exo-6-(3-butylthio-1,2,5-thiadiazol-4-yl)-1-azabicyclo[3.2.1]octane (+) L-tartrate]
Inhibition in vitro OXO BINDING IC50: 0.32 ng/mL

Cc1nnc(SCCCCSc2nsnc2C2CN3CCC2CC3)s1 (centres unmarked) [Compound 107, oxalate]
Inhibition in vitro OXO BINDING IC50: 0.3 ng/mL

O=C(O)C(=O)O.OC1(c2nsnc2Cl)CN2CCC1CC2 (centres unmarked) [Compound 2, 3-(3-Chloro-1,2,5-thiadiazol-4-yl)-3-hydroxy-1-azabicyclo[2.2.2]octane oxalate]
Inhibition in vitro OXO BINDING IC50: 270 ng/mL

CCCCCCOc1nsnc1C1(O)CN2CCC1CC2.O=C(O)C(=O)O (centres unmarked) [Compound 7, 3-(3-Hexyloxy-1,2,5-thiadiazol-4-yl)-3-hydroxy-1-azabicyclo[2.2.2]octane oxalate]
Inhibition in vitro OXO BINDING IC50: 13 ng/mL

CCCSc1nsnc1C1CN2CCC1CC2.O=C(O)C(=O)O (centres unmarked) [Compound 53, 3-(3-Propylthio-1,2,5-thiadiazol-4-yl)-1-azabicyclo[2.2.2]octane oxalate]
Inhibition in vitro OXO BINDING IC50: 0.3 ng/mL

CCCCSc1nsnc1[C@@H]1CN2CCC[C@@H]1C2 (single isomer, unassigned) [Compound 112, (-)-Exo-6-(3-butylthio-1,2,5-thiadiazol-4-yl)-1-azabicyclo[3.2.1]octane (-) D-tartrate]
Inhibition in vitro OXO BINDING IC50: 0.19 ng/mL

CCC=CCCOc1nsnc1C1CN2CCC1CC2.O=C(O)/C=C/C(=O)O (centres unmarked) [Compound 49, 3-(3-(3-Hexenyloxy)-1,2,5-thiadiazol-4-yl)-1-azabicyclo[2.2.2]octane fumarate]
Inhibition in vitro OXO BINDING IC50: 0.33 ng/mL

COc1nsnc1[C@@H]1CN2CCC[C@@H]1C2 (relative stereo) [Compound 117, Exo-6-(3-methoxy-1,2,5-thiadiazol-4-yl)-1-azabicyclo[3.2.1]octane oxalate]
Inhibition in vitro OXO BINDING IC50: 2.0 ng/mL

N#CCCSc1nsnc1[C@H]1CN2CCC[C@H]1C2 (relative stereo) [Compound 80, Exo-6-(3-(2-cyanoethylthio)-1,2,5-thiadiazol-4-yl)-1-azabicyclo[3.2.1]octane oxalate]
Inhibition in vitro OXO BINDING IC50: 0.30 ng/mL

c1ccc(CCCSc2nsnc2[C@@H]2CN3CC[C@H]2C3)cc1 (relative stereo) [Compound 35, Endo-3-(3-(3-phenylpropylthio)-1,2,5-thiadiazol-4-yl)-1-azabicyclo[2.2.1]heptane oxalate]
Inhibition in vitro OXO BINDING IC50: 1.9 ng/mL

CC(C)CCCOc1nsnc1[C@@H]1CN2CCC[C@@H]1C2 (relative stereo) [Compound 123, Exo-6-(3-isohexyloxy-1,2,5-thiadiazol-4-yl)-1-azabicyclo[3.2.1]octane dioxalate]
Inhibition in vitro OXO BINDING IC50: 0.47 ng/mL

Clc1nsnc1[C@H]1CN2CC[C@@H]1C2 (relative stereo) [Compound 22, Endo-3-(3-chloro-1,2,5-thiadiazol-4-yl)-1-azabicyclo[2.2.1]heptane oxalate]
Inhibition in vitro OXO BINDING IC50: 3.4 ng/mL

CCCCCCSc1nsnc1[C@H]1CN2CCC[C@H]1C2 (relative stereo) [Compound 29, Exo-6-(3-hexylthio-1,2,5-thiadiazol-4-yl)-1-azabicyclo[3.2.1]octane oxalate]
Inhibition in vitro OXO BINDING IC50: 0.39 ng/mL

CCSc1nsnc1[C@H]1CN2CCC[C@H]1C2 (relative stereo) [Compound 32, Exo-6-(3-ethylthio-1,2,5-thiadiazol-4-yl)-1-azabicyclo[3.2.1]octane oxalate]
Inhibition in vitro OXO BINDING IC50: 0.45 ng/mL

N#Cc1ccc(CSc2nsnc2C2CN3CCC2CC3)cc1.O=C(O)C(=O)O (centres unmarked) [Compound 45, 3-(3-(4-Cyanobenzylthio)-1,2,5-thiadiazol-4-yl)-1-azabicyclo[2.2.2]octane oxalate]
Inhibition in vitro OXO BINDING IC50: 1.6 ng/mL

Clc1nsnc1[C@H]1CN2CCC[C@@H]1C2 (relative stereo) [Compound 16, Endo-6-(3-chloro-1,2,5-thiadiazol-4-yl)-1-azabicyclo[3.2.1]octane-oxalate]
Inhibition in vitro OXO BINDING IC50: 67 ng/mL

CSc1nsnc1C1CN2CCC1CC2.O=C(O)C(=O)O (centres unmarked) [Compound 131, 3-(3-Methylthio-1,2,5-thiadiazol-4-yl)-1-azabicyclo[2.2.2]octane oxalate]
Inhibition in vitro OXO BINDING IC50: 0.96 ng/mL

From patent publication US5574043A, “Certain [1,2,5-thiadiazol-4-yl]-1-azabicyclo [3.2.1]octane derivatives and their pharmaceutical uses” (Novo Nordisk A/S, priority 1995, dated 1996)
